What was measured:
HIV-1IIIB (wild-type) = details: HIV-1IIIB strain (wild-type virus)
HIV-1 = details: as described in the literature; cited from earlier work

Compound | IC50 times lower than enfuvirtide (HIV-1IIIB (wild-type)) | IC90 times lower than enfuvirtide (HIV-1IIIB (wild-type)) | IC50 (HIV-1)
CC[C@H](C)[C@H](NC(=O)[C@H](CC(C)C)NC(=O)[C@H](CO)NC(=O)[C@H](Cc1c[nH]cn1)NC(=O)[C@@H](NC(=O)[C@H](CC(C)C)NC(=O)[C@H](CO)NC(=O)[C@@H](NC(=O)[C@H](Cc1ccc(O)cc1)NC(=O)[C@H](CC(N)=O)NC(=O)[C@H](CC(N)=O)NC(=O)[C@@H](NC(=O)[C@H](CCC(=O)O)NC(=O)[C@H](CCCNC(=N)N)NC(=O)[C@H](CC(=O)O)NC(=O)[C@H](Cc1c[nH]c2ccccc12)NC(=O)[C@H](CCC(=O)O)NC(=O)[C@H](CCSC)NC(=O)[C@H](Cc1c[nH]c2ccccc12)NC(C)=O)[C@@H](C)CC)[C@@H](C)O)[C@@H](C)CC)C(=O)N[C@@H](CCC(=O)O)C(=O)N[C@@H](CCC(=O)O)C(=O)N[C@@H](CO)C(=O)N[C@@H](CCC(N)=O)C(=O)N[C@@H](CC(N)=O)C(=O)N[C@@H](CCC(N)=O)C(=O)N[C@@H](CCC(N)=O)C(=O)N[C@@H](CCC(=O)O)C(=O)N[C@@H](CCCCN)C(=O)N[C@@H](CC(N)=O)C(=O)N[C@@H](CCC(=O)O)C(=O)N[C@@H](CCC(N)=O)C(=O)N[C@@H](CCC(=O)O)C(=O)N[C@@H](CC(C)C)C(=O)N[C@@H](CC(C)C)C(=O)NCC(=O)N[C@@H](CO)C(=O)NCC(=O)N[C@@H](CSCC(=O)O[C@H]1CC[C@@]2(C)C(=CC[C@H]3[C@@H]4CC[C@H]([C@H](C)CCCC(C)(C)O)[C@@]4(C)CC[C@@H]32)C1)C(N)=O [C34-HC] | 25 times | 40 times | 
WMEWDREINNYTSL-IHSLIEESQNQQEKNEQELL [C34] |  |  | 1.4 nM
